Where “and” joins values, the source holds several entries; their conditions need not be identical. Equal values may be shown once. Inconclusive results and toxic doses are left out. The calls were made as follows: active = survival T/C of 150% or more; inactive = T/C below 125% in these data.
System: P388 leukemia ip, CD2F1 mice, survival T/C
Assay: NCI In Vivo Anticancer Drug Screen. Data for tumor model P388 Leukemia (intraperitoneal) in CD2F1 (CDF1) mice
Details: endpoint: median survival time, higher = longer survival
Procedure, shortened: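 Mice carrying the transplanted tumor received test compound or vehicle. Survival was recorded in each group, and the value is the treated-group measurement divided by that of the vehicle-treated control group.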

[1] = dose: 50.0 mg/kg/injection, schedule: Q01DX005 (ip), vehicle: saline with Tween-80
[2] = dose: 100.0 mg/kg/injection, schedule: Q01DX005 (ip), vehicle: saline with Tween-80
[3] = dose: 200.0 mg/kg/injection, schedule: Q01DX005 (ip), vehicle: saline with Tween-80
[4] = dose: 6.25 mg/kg/injection, schedule: Q01DX009 (ip), vehicle: saline
[5] = dose: 12.5 mg/kg/injection, schedule: Q01DX009 (ip), vehicle: saline
[6] = dose: 25.0 mg/kg/injection, schedule: Q01DX009 (ip), vehicle: saline
[7] = dose: 100.0 mg/kg/injection, schedule: Q01DX009 (ip), vehicle: saline
[8] = dose: 200.0 mg/kg/injection, schedule: Q01DX009 (ip), vehicle: saline
[9] = dose: 50.0 mg/kg/injection, schedule: Q01DX009 (ip), vehicle: other
[10] = dose: 100.0 mg/kg/injection, schedule: Q01DX009 (ip), vehicle: other
[11] = dose: 25.0 mg/kg/injection, schedule: Q01DX009 (ip), vehicle: saline with Tween-80
[12] = dose: 50.0 mg/kg/injection, schedule: Q01DX009 (ip), vehicle: saline with Tween-80
[13] = dose: 100.0 mg/kg/injection, schedule: Q01DX009 (ip), vehicle: saline with Tween-80
[14] = dose: 200.0 mg/kg/injection, schedule: Q01DX009 (ip), vehicle: saline with Tween-80
[15] = dose: 60.0 mg/kg/injection, schedule: Q01DX005 (ip), vehicle: Klucel (hydroxypropylcellulose) (HPC)
[16] = dose: 120.0 mg/kg/injection, schedule: Q01DX005 (ip), vehicle: Klucel (hydroxypropylcellulose) (HPC)
[17] = dose: 240.0 mg/kg/injection, schedule: Q01DX005 (ip), vehicle: Klucel (hydroxypropylcellulose) (HPC)
[18] = dose: 60.0 mg/kg/injection, schedule: Q01DX005 (ip), vehicle: saline with Tween-80
[19] = dose: 120.0 mg/kg/injection, schedule: Q01DX005 (ip), vehicle: saline with Tween-80
[20] = dose: 240.0 mg/kg/injection, schedule: Q01DX005 (ip), vehicle: saline with Tween-80
[21] = dose: 100.0 mg/kg/injection, schedule: Q04DX003 (ip), vehicle: saline
[22] = dose: 200.0 mg/kg/injection, schedule: Q04DX003 (ip), vehicle: saline
[23] = dose: 400.0 mg/kg/injection, schedule: Q04DX003 (ip), vehicle: saline
[24] = dose: 100.0 mg/kg/injection, schedule: Q01DX009 (ip), vehicle: saline sonified

Measured: T/C

COC(=O)[C@H]1O[C@H]1c1ccccn1
inactive: dose: 25.0 mg/kg/injection, schedule: Q01DX005 (ip), vehicle: distilled water + alcohol 103 % of control | dose: 50.0 mg/kg/injection, schedule: Q01DX005 (ip), vehicle: distilled water + alcohol 106 % of control | dose: 100.0 mg/kg/injection, schedule: Q01DX005 (ip), vehicle: distilled water + alcohol 99 % of control | dose: 200.0 mg/kg/injection, schedule: Q01DX005 (ip), vehicle: distilled water + alcohol 107 % of control

CCn1c2ccc([N+](=O)[O-])cc2c2c([N+](=O)[O-])c(NC(C)=O)ccc21
inactive: [1] 93 % of control | [2] 95 % of control | [3] 92 % of control

CC(=O)Nc1ccc(S(=O)(=O)N/N=c2/sc3ccccc3n2C)cc1N
inactive: [4] 96 % of control | [5] 103 % of control | [6] 100 % of control | [7] 88 % of control | [8] 92 % of control

COC=C=CC(C)(C)OC
inactive: dose: 25.0 mg/kg/injection, schedule: Q01DX005 (ip), vehicle: Klucel (hydroxypropylcellulose) (HPC) 102 % of control and 110 % of control | dose: 50.0 mg/kg/injection, schedule: Q01DX005 (ip), vehicle: Klucel (hydroxypropylcellulose) (HPC) 103 % of control and 91 % of control and 95 % of control | dose: 100.0 mg/kg/injection, schedule: Q01DX005 (ip), vehicle: Klucel (hydroxypropylcellulose) (HPC) 103 % of control and 112 % of control and 121 % of control | dose: 200.0 mg/kg/injection, schedule: Q01DX005 (ip), vehicle: Klucel (hydroxypropylcellulose) (HPC) 100 % of control and 103 % of control and 114 % of control

[CH3][Ge]([O][Ge]([CH3])([c]1ccccc1)[c]1ccccc1)([c]1ccccc1)[c]1ccccc1
inactive: dose: 50.0 mg/kg/injection, schedule: Q01DX009 (ip), vehicle: saline 102 % of control | [7] 93 % of control | [8] 92 % of control

NC1(c2ccccc2)CC2CCC1C2 (stereo not given)
inactive: dose: 12.5 mg/kg/injection, schedule: Q01DX001 (ip), vehicle: Klucel (hydroxypropylcellulose) (HPC) 100 % of control | dose: 25.0 mg/kg/injection, schedule: Q01DX001 (ip), vehicle: Klucel (hydroxypropylcellulose) (HPC) 100 % of control | dose: 50.0 mg/kg/injection, schedule: Q01DX001 (ip), vehicle: Klucel (hydroxypropylcellulose) (HPC) 100 % of control

CC(O)C([NH-])C(=O)O.CC([NH-])C(=O)O.[Cu+2] (stereo not given)
inactive: [4] 94 % of control | [5] 97 % of control | [6] 94 % of control

CCOC(=O)Nc1cc(OC)cc2ccc(C)nc12
inactive: dose: 12.5 mg/kg/injection, schedule: Q01DX009 (ip), vehicle: other 88 % of control | [9] 98 % of control | [10] 99 % of control | dose: 200.0 mg/kg/injection, schedule: Q01DX009 (ip), vehicle: other 98 % of control

CCCCCC1=C/N\C(C#N)=C(C#N)/N=C/C(CCCCC)=C\N\C(C#N)=C(C#N)/N=C\1
inactive: dose: 6.25 mg/kg/injection, schedule: Q01DX009 (ip), vehicle: Klucel (hydroxypropylcellulose) (HPC) 93 % of control | dose: 12.5 mg/kg/injection, schedule: Q01DX009 (ip), vehicle: Klucel (hydroxypropylcellulose) (HPC) 93 % of control | dose: 25.0 mg/kg/injection, schedule: Q01DX009 (ip), vehicle: Klucel (hydroxypropylcellulose) (HPC) 93 % of control

COc1ccc(OC)c(NC(=O)Oc2cccc(NC(C)=O)c2)c1
inactive: [11] 105 % of control | [12] 106 % of control | [13] 104 % of control | [14] 107 % of control | dose: 400.0 mg/kg/injection, schedule: Q01DX009 (ip), vehicle: saline with Tween-80 104 % of control

C=C1C(=O)OC2CC3(C)OC3CC(O)/C(C)=C/C(OC(=O)C(C)C)C12 (stereo not given)
inactive: [4] 110 % of control | [5] 112 % of control | [6] 121 % of control

CC(C)S.[Cu+2]
inactive: dose: 6.25 mg/kg/injection, schedule: Q01DX009 (ip), vehicle: saline with Tween-80 114 % of control | dose: 12.5 mg/kg/injection, schedule: Q01DX009 (ip), vehicle: saline with Tween-80 97 % of control | [11] 109 % of control

C=CCCCn1nc(-c2ccccc2)c(-c2ccccc2)n1
inactive: [12] 106 % of control | [13] 100 % of control | [14] 103 % of control

O=C1CSc2ccccc2-n2cccc21
inactive: [15] 89 % of control | [16] 109 % of control | [17] 101 % of control

CC(C)c1cccc(C(C)C)c1NC(=O)Nc1ccc(Cl)cc1Cl
inactive: [18] 114 % of control | [19] 104 % of control | [20] 116 % of control

Cc1ccc(S(=O)(=O)O/N=C(/CC/C(=N\OS(=O)(=O)c2ccc(C)cc2)c2ccccc2)c2ccccc2)cc1
inactive: dose: 100.0 mg/kg/injection, schedule: Q04DX002 (ip), vehicle: saline with Tween-80 95 % of control | dose: 200.0 mg/kg/injection, schedule: Q04DX002 (ip), vehicle: saline with Tween-80 115 % of control | dose: 400.0 mg/kg/injection, schedule: Q04DX002 (ip), vehicle: saline with Tween-80 96 % of control

O=C(CCS(=O)(=O)CCC(=O)c1ccco1)c1ccco1
inactive: [21] 94 % of control | [22] 94 % of control | [23] 90 % of control

COC1/C=C/OC2(C)Oc3c(C)c(O)c4c(c3C2=O)C(=O)c2cnc(nc2C4=O)/C(C)=C\C=C\C(C)C(O)C(C)C(O)C(C)C(OC(C)=O)C1C (stereo not given)
inactive: dose: 25.0 mg/kg/injection, schedule: Q01DX009 (ip), vehicle: other 93 % of control | [9] 107 % of control | [10] 116 % of control

O=C(CCl)Nc1nc(=O)[nH]s1
inactive: dose: 50.0 mg/kg/injection, schedule: Q01DX009 (ip), vehicle: Klucel (hydroxypropylcellulose) (HPC) 107 % of control | dose: 100.0 mg/kg/injection, schedule: Q01DX009 (ip), vehicle: Klucel (hydroxypropylcellulose) (HPC) 107 % of control

COC1C(C(=O)CS(=O)Cc2ccccc2)OC2OC(C)(C)OC21 (stereo not given)
inactive: dose: 60.0 mg/kg/injection, schedule: Q01DX005 (ip), vehicle: saline 104 % of control and 98 % of control | dose: 120.0 mg/kg/injection, schedule: Q01DX005 (ip), vehicle: saline 103 % of control | dose: 240.0 mg/kg/injection, schedule: Q01DX005 (ip), vehicle: saline 106 % of control and 108 % of control

N=C(N)N1CCNc2ccccc2C1
inactive: dose: 25.0 mg/kg/injection, schedule: Q04DX003 (ip), vehicle: saline with Tween-80 105 % of control | dose: 50.0 mg/kg/injection, schedule: Q04DX003 (ip), vehicle: saline with Tween-80 99 % of control | dose: 100.0 mg/kg/injection, schedule: Q04DX003 (ip), vehicle: saline with Tween-80 104 % of control

O=C(Cn1nnc(N2CCOCC2)n1)N/N=C/c1ccccc1Cl
inactive: [15] 91 % of control | [16] 87 % of control | [17] 87 % of control

COc1ccc(/C=C/C(=N/Nc2ccccc2)C(C)CN(C)C)cc1 (stereo not given)
inactive: [18] 101 % of control | [19] 95 % of control

CCOc1ccncc1[N+](=O)[O-]
inactive: dose: 25.0 mg/kg/injection, schedule: Q01DX009 (ip), vehicle: saline sonified 100 % of control | dose: 50.0 mg/kg/injection, schedule: Q01DX009 (ip), vehicle: saline sonified 109 % of control | [18] 101 % of control | [24] 90 % of control | [19] 93 % of control | [20] 95 % of control

COC(=O)COc1cc2c(cc1C(C)c1ccc(O)cc1)OCO2 (stereo not given)
inactive: [1] 100 % of control | [2] 102 % of control | [3] 90 % of control

COc1cc(C2C(C)=C(C)Oc3cc4c(cc32)OCO4)cc(OC)c1OC (stereo not given)
inactive: [18] 97 % of control | [19] 91 % of control | [20] 88 % of control

COc1ccc(S(=O)(=O)N/N=C\c2cc([N+](=O)[O-])ccc2O)c(OC)c1OC
inactive: [1] 107 % of control | [2] 101 % of control | [3] 94 % of control

c1ncc2[nH]cnc2n1
inactive: [24] 100 % of control | [21] 104 % of control | dose: 200.0 mg/kg/injection, schedule: Q01DX009 (ip), vehicle: saline sonified 104 % of control | [22] 104 % of control | dose: 400.0 mg/kg/injection, schedule: Q01DX009 (ip), vehicle: saline sonified 100 % of control | [23] 104 % of control

From PubChem BioAssay AID330 (DTP/NCI, 2004)
